This note sets out measurements from ChEMBL document CHEMBL4765258 (Eur J Med Chem, 2020).

As usually defined, the Ki is a dissociation constant, usually derived from enzyme kinetics or from competition with a known ligand. Low readings indicate higher affinity, high ones lower affinity. As a reminder, the inhibition is the drop in the measured response relative to a control, in per cent. A high value points to a strong effect. The Papp is a coefficient for how fast a substance crosses the barrier. High values mean fast passage, low ones slow passage. Usually IC50 stands for the concentration needed to halve the response being measured.

Data set [1] addresses T1, Nuclear factor erythroid 2-related factor 2 (Homo sapiens) (UniProt Q16236).
T1 sequence (whole entry): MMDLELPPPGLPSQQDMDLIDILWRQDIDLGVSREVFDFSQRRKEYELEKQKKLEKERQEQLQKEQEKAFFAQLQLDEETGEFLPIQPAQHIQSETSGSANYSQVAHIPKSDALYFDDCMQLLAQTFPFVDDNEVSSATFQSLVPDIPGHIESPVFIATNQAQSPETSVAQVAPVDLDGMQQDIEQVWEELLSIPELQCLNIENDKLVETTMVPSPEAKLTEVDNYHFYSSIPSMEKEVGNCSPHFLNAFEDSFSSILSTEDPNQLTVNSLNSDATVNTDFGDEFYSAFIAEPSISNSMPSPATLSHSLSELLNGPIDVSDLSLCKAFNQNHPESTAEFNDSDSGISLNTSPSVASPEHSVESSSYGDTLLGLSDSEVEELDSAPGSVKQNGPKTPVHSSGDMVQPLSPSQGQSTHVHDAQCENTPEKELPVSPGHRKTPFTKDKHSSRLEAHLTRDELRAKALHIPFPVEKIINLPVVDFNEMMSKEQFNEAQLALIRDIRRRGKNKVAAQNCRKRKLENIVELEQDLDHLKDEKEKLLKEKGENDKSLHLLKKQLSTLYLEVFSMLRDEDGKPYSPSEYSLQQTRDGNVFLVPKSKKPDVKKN
Nature of the data set: Activation of NRF2 in human AREc32 cells incubated for 24 hrs by luciferase reporter gene assay. It is filed as cell-based. (Reporter assays use an easily measured gene product as a stand-in for the process of interest.)

Data set [2] in a line: Antioxidant activity assessed as AAPH radical scavenging activity preincubated for 15 mins measured every min for 80 mins by ORAC-FL assay relative to trolox. It is filed as functional.
Data set [3] can be described thus: Displacement of [125l]-lodomelatonin from hamster brain cell QR2 incubated for 60 mins by scintillation counting analysis.
Data set [4] addresses Kelch-like ECH-associated protein 1 (Homo sapiens) (UniProt Q14145). Nature of the data set: Binding affinity to human recombinant Keap1 Kelch domain expressed in Escherichia coli BL21 (DE3) by SPR assay. (SPR reads the build-up and loss of mass on a sensor chip optically.)
Another data set concerns Cricetinae. Briefly: Displacement of [125l]-lodomelatonin from hamster brain cell QR2 at 100 nM incubated for 60 mins by scintillation counting analysis relative to control. It is filed as tissue-based.
The nature of data set [5]: Permeability of compound by PAMPA-BBB assay.
Data set [6] concerns the target T2, Melatonin receptor type 1A (Homo sapiens, UniProt P48039). Briefly: Displacement of [125l]-lodomelatonin from human MT1 receptor expressed in CHO cells incubated for 120 mins by scintillation counting analysis relative to control. It is filed as cell-based.
The target in data set [7] is T2, Melatonin receptor type 1A. Nature of the data set: Displacement of [125l]-lodomelatonin from human MT1 receptor expressed in CHO cells incubated for 120 mins by scintillation counting analysis. It is filed as cell-based.
The target of data set [8] is T3, Melatonin receptor type 1B (Homo sapiens, UniProt P49286).
T3 sequence (P49286 whole entry): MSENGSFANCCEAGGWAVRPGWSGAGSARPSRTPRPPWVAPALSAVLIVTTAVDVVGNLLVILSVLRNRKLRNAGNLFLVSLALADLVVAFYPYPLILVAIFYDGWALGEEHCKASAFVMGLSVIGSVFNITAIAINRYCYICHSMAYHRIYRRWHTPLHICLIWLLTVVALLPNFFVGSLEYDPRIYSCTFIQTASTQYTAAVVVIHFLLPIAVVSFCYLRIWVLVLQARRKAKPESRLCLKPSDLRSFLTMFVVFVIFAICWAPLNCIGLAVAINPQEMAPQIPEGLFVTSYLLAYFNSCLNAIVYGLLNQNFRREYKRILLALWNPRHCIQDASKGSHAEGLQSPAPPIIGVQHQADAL
Briefly: Displacement of [125l]-lodomelatonin from human MT2 receptor expressed in CHO cells incubated for 120 mins by scintillation counting analysis. It is filed as cell-based.

Data set [9] addresses T4, Amine oxidase [flavin-containing] B (Homo sapiens, UniProt P27338).
T4 sequence (P27338 whole entry): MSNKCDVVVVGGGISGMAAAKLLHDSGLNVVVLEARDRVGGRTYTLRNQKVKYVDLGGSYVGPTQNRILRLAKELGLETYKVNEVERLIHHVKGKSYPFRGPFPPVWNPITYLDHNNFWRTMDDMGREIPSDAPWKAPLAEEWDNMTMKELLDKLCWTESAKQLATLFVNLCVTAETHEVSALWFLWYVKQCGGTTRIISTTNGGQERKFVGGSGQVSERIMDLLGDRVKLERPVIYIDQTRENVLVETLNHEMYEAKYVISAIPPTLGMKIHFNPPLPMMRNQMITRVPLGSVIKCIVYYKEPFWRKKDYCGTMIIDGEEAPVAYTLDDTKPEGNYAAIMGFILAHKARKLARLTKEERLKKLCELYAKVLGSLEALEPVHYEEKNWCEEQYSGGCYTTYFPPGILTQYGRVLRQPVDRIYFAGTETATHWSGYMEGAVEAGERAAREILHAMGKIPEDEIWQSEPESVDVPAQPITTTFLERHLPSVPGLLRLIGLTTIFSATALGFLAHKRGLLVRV
Description: Inhibition of human MAO-B using p-tyramine as substrate by Amplex Red reagent based fluorescence analysis

The target in data set [10] is T5, Amine oxidase [flavin-containing] A (Homo sapiens, UniProt P21397).
T5 sequence (P21397 whole entry): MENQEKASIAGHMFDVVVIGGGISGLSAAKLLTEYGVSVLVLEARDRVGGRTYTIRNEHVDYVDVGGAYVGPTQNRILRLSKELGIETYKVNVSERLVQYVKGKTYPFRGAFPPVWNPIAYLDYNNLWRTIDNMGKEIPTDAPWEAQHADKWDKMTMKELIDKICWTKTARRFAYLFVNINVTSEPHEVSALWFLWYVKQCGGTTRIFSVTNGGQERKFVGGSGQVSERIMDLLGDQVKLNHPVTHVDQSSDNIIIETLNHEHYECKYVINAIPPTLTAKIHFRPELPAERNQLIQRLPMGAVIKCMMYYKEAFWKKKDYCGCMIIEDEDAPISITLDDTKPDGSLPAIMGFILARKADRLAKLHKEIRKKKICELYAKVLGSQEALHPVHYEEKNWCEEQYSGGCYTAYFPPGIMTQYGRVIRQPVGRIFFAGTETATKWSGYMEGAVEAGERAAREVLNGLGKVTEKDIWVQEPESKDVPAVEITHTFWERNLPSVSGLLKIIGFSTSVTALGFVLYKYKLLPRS
Description: Inhibition of human MAO-A using p-tyramine as substrate by Amplex Red reagent based fluorescence analysis

Data set [11] addresses T6, Polyunsaturated fatty acid 5-lipoxygenase (Homo sapiens, UniProt P09917).
T6 sequence (P09917 whole entry): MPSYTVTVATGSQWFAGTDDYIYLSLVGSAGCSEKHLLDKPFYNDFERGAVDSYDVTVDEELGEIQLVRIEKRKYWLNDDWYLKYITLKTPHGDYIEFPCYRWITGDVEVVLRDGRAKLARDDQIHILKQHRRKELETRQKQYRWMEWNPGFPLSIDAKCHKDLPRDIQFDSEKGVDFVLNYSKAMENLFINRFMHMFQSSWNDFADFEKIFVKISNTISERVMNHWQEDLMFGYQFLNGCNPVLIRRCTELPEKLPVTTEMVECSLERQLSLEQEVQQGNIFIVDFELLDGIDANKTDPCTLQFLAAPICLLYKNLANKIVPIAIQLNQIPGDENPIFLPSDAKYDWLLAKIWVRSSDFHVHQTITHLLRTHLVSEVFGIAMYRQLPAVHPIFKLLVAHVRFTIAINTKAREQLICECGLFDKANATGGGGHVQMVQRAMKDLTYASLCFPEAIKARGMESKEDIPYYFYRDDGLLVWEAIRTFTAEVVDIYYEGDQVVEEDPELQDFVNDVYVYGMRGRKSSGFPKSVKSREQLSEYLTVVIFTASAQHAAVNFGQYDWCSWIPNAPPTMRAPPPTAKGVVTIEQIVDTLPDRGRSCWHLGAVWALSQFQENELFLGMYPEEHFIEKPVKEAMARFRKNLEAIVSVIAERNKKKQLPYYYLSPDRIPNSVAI
Nature of the data set: Inhibition of human 5-Lipoxygenase using H2DCFDA as substrate preincubated for 5 mins and measured by Spectrophotometric assay.

Calls of active or inactive are those of the source. No cut-off for these calls is given here.

Chain of Kelch-like ECH-associated protein 1 (Homo sapiens) (Q14145 whole entry, the tested form may be a part): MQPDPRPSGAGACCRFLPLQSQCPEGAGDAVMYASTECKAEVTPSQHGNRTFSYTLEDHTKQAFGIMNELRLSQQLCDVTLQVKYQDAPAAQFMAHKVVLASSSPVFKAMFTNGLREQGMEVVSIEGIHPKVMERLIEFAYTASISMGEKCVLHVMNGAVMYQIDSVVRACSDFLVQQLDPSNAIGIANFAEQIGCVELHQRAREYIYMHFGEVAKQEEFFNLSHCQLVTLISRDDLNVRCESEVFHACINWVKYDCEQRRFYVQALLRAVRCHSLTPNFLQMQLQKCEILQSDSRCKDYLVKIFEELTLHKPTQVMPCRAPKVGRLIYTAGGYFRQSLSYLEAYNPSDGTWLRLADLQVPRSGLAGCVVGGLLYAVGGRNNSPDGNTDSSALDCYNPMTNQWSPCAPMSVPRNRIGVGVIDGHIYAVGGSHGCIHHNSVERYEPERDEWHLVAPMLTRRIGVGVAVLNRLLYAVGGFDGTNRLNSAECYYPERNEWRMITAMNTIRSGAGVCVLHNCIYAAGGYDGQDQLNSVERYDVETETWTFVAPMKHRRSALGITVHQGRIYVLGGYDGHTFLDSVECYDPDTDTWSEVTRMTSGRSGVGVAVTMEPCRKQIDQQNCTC
T2 sequence (P48039 whole entry): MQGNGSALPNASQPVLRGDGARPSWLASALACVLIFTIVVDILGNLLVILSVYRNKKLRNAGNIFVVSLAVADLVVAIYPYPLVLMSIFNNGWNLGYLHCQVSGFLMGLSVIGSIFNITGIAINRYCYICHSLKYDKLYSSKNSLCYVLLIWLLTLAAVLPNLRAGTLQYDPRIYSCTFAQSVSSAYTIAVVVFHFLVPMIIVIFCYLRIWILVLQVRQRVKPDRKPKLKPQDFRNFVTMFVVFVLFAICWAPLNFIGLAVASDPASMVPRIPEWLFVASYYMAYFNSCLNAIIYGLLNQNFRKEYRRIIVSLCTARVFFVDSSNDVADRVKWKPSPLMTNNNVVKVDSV

Take `COc1ccc2c(c1)C(/C=C/c1n[nH]c(=O)o1)=CCC2`: the CD in data set [1] is above 30 µM.
For the compound `COc1ccc2[nH]cc(CCc3nn(CCCc4ccccc4)c(=O)o3)c2c1`, the Activity in [2] amounted to 2.7 equiv.
Same read-out and setting: in the case of `CCCCCCCn1nc(CCc2c[nH]c3ccc(OC)cc23)oc1=O` it was 2.1 equiv.
Regarding `COc1ccc2[nH]cc(CCNC(C)=O)c2c1` [MELATONIN], in data set [3], the affinity, expressed as Ki, was 77 nM. The Activity in [2] was below 0.1 equiv.
In the case of `C=CCNC(=O)/C=C/c1c[nH]c2ccc(OC)cc12`, the CD in data set [1] (filed as activator) amounted to 27.4 µM. Also, the outcome in data set [4] was inactive.
For the compound `COc1ccc2[nH]cc(CCc3n[nH]c(=O)o3)c2c1`, in data set [3], the Ki was above 100 nM. The inhibition in the data set with Cricetinae turned out to be 5%. The Papp in data set [5] is below 2 ×10⁻⁶ cm/s. In addition, the Activity in [2] stood at 2.7 equiv.
Regarding `COc1ccc2[nH]cc(CCc3nn(CC4CCC4)c(=O)o3)c2c1`, the Activity in data set [2] worked out at 2.2 equiv.
With `COc1ccc2cccc(/C=C/c3n[nH]c(=O)o3)c2c1`, the CD in data set [1] was above 30 µM.
Turning to `COc1ccc2[nH]cc(CC(C)c3n[nH]c(=O)o3)c2c1` (centres undefined), in data set [1], the CD is above 30 µM. For the same compound, the result in data set [4] was inactive.
The compound `COc1cc2cccc(/C=C/c3n[nH]c(=O)o3)c2cc1OC` came in with an inhibition in data set [6] of 63%. Besides, the Ki in [7] is above 1000 nM; in data set [8], 69 nM. In data set [1], the CD is above 30 µM. Also, the outcome in data set [4] was inactive. Besides, in [2], the Activity is below 0.1 equiv.
With `CNc1nnc(CCc2c[nH]c3ccc(OC)cc23)o1`, the results for the IC50 in [9], in [10] and in data set [11] were 37 µM, above 50 µM and 60.6 µM, respectively. In addition, the Ki in data set [7] amounted to 550 nM; in data set [8], 110 nM; in [3] it was 330 nM. Further, the Activity in [2] was found to be 1.8 equiv.
Turning to `C[S+]([O-])CCCCN=C=S` (centres undefined), the CD in data set [1] (filed as activator) was found to be 0.54 µM.
On to `CCCCCCn1nc(CCc2c[nH]c3ccc(OC)cc23)oc1=O`, for which, in [2], the Activity stood at 3 equiv.
In the case of `COc1ccc2[nH]cc(CCc3nn(CC4CCCC4)c(=O)o3)c2c1`, in data set [2], the Activity came out at 2.8 equiv.
In data set [1] (filed as activator), `C#CCNC(=O)/C=C/c1c[nH]c2ccc(OC)cc12` gave a CD of 1.76 µM. Moreover, in data set [4], the result was Active.
For `COc1ccc2[nH]cc(/C=C/c3n[nH]c(=O)o3)c2c1`, in data set [1], the CD is above 60 µM. In addition, in [4], the outcome was Active.
As for `C#CCn1nc(/C=C/c2c[nH]c3ccc(OC)cc23)oc1=O`, the CD in data set [1] (filed as activator) amounted to 15.1 µM. Also, the result in data set [4] was Active.
For the compound `CCCn1nc(CCc2c[nH]c3ccc(OC)cc23)oc1=O`, the Activity in [1] (filed as activator) came out at 2.3 equiv. Also, the outcome in [4] was inactive.
